In this test the target is Aldo-keto reductase family 1 member B1 (Rattus norvegicus, UniProt P07943). Description: Inhibition of Rattus norvegicus (rat) lens aldose reductase.
For orientation: IC50 means the concentration that gives 50% inhibition. `CC(C(=O)O)N1C(=O)c2cc3c(c(O)c2C1=O)CC([C@@H](C)C(=O)O)O3` (some centres undefined) gave a 50% inhibitory concentration (IC50) of 2 µM.
Turning to `COc1cc2c(=O)oc3c(O)c(O)cc4c(=O)oc(c1O)c2c34`, it took 10 µM to reach half-maximal inhibition (IC50).
Next, `O=C(O)C1Cc2c(oc(=O)c3cc(O)c(O)c(O)c23)C1=O` (centres undefined): 2.4 µM; `CCOC(=O)C1Cc2c(oc(=O)c3cc(O)c(O)c(O)c23)C1=O` (centres undefined): 5.01 µM.
The value for `CCCC/C=C/CCCCCCCCCC1=C(OC)C(=O)C=C(OC)C1=O` was 55 µM; that for `CC(=O)C[C@@]1(O)C(=O)C2=C(OC[C@@H]2C)c2ccc3c(C)cccc3c21` was 0.1 µM; that for `CC(=O)C[C@@]1(O)C(=O)C2=C(OC[C@@H]2C)c2ccc3c(c21)CCCC3(C)C` was 1.74 µM.
Turning to `O=C(/C=C/c1ccc(O)c2c1[C@H](C(=O)O[C@@H](Cc1ccc(O)c(O)c1)C(=O)O)[C@@H](c1ccc(O)c(O)c1)O2)O[C@H](Cc1ccc(O)c(O)c1)C(=O)O`, the IC50 is 2.63 µM.
The value for `O=C(/C=C/c1ccc(O[C@@H](C(=O)O)[C@@H](O)c2ccc(O)c(O)c2)c(O)c1)O[C@H](Cc1ccc(O)c(O)c1)C(=O)O` was 2.82 µM; that for `O=CC(O)C(O)(Oc1ccc(/C=C/C(=O)O[C@H](Cc2ccc(O)c(O)c2)C(=O)O)cc1O)C(O)C(O)CO` (some centres undefined) was 3.16 µM; that for `C=C(C)[C@@H]1CC=C(COC2OC(CO)[C@H](O)[C@H](O)[C@H]2O)CC1` (some centres undefined) was 55 µM.
Compound `C=C(C)[C@@H]1CC=C(COC2OC(CO)[C@H](O)[C@@H](O)[C@@H]2O)CC1` (some centres undefined) gave a 50% inhibitory concentration (IC50) of 14.5 µM.
Next, `CC(=O)O[C@H]1C[C@]2(CO)C3CC[C@@]4(C)C(C(=O)CC(=O)[C@@H]4C)[C@]3(C)CC[C@@]2(C)C2CC(C)(C)CC[C@@]21C` (some centres undefined): 47.9 µM; `CC1(C)C2CC[C@]3(C)C(CC=C4C5C[C@](C)(C(=O)O)C[C@@H](O)[C@]5(C)CC[C@]43C)[C@@]2(C)CC[C@@H]1O` (some centres undefined): 55 µM.
Next, `CC1(C)C2CC[C@]3(C)C(CC=C4C5C[C@](C)(C(=O)O)C[C@H](O)[C@]5(C)CC[C@]43C)[C@@]2(C)CC[C@@H]1O` (some centres undefined): 75.9 µM; `CC(C)c1ccc2c(c1)CCC1[C@@](C)(CO)CCC[C@]21C` (some centres undefined): 38.9 µM; `CC(C)c1ccc2c(c1)CCC1[C@@](C)(C(=O)O)CCC[C@]21C` (some centres undefined): 35.5 µM.
Compound `CC(=O)c1c(O)cc(O)cc1O[C@@H]1OC(COC(=O)c2cc(O)c(O)c(O)c2)[C@H](O)[C@H](O)[C@@H]1O` (some centres undefined) had a concentration for half-maximal inhibition (IC50) of 28.8 µM.
The value for `O=C(/C=C/c1ccc(O)c(O)c1)OC1C[C@](O)(C(=O)O)C[C@H](O)[C@@H]1O` (some centres undefined) was 1.82 µM.
In turn, `CC1(C)C[C@H](O)[C@]23CC[C@@H](O)[C@](C)(CCC12)C3` (some centres undefined) showed an IC50 of 95.5 µM.
As for `CC1(C)CC2C1CC[C@@]1(C)C[C@]2(O)CC[C@@H]1O` (some centres undefined), the half-maximal inhibitory concentration (IC50) was 44.7 µM.
Next, `COc1cc2c(c(OC)c1OC)-c1c(cc(O)c(OC)c1OC)C[C@H](C)[C@H](C)[C@H]2O`: 38 µM; `COc1cc(C(=O)/C(C)=C(/C)C(=O)c2ccc(O)c(OC)c2)ccc1O`: 100 µM.
The value for `CCOc1ccc(C(=O)/C(C)=C(/C)C(=O)c2ccc(O)c(OC)c2)cc1OC` was 34.7 µM.
Next, `COc1cc(/C=C(/C)[C@H](C)Cc2ccc(O)c(OC)c2)ccc1O`: 35.5 µM; `COc1cc([C@H]2O[C@H](c3ccc(O)c(OC)c3)[C@@H](C)[C@H]2C)ccc1O`: 25.1 µM; `CC(CCC(=O)O)N1Cc2c(cc3c(c2O)CC([C@@H](C)C(=O)O)O3)C1=O` (some centres undefined): 12 µM.
As to `C[C@@H](C(=O)O)C1Cc2c(cc3c(c2O)CN(CC(=O)O)C3=O)O1` (some centres undefined), the half-inhibitory concentration (IC50) is 1.26 µM.
Regarding `CC(C(=O)O)N1Cc2c(cc3c(c2O)CC([C@@H](C)C(=O)O)O3)C1=O` (some centres undefined), 4.47 µM corresponded to half-maximal inhibition (IC50).
Next, `C[C@@H](C(=O)O)C1Cc2c(cc3c(c2O)C(=O)NC3=O)O1` (some centres undefined): 5.37 µM; `C[C@@H](C(=O)O)C1Cc2c(cc3c(c2O)C(=O)N(CC(=O)O)C3=O)O1` (some centres undefined): 0.447 µM; `CC(=O)C1=C(O)C2=CO[C@H](C)[C@@H](C)C2=C(C)C1=O`: 8.71 µM.
The value for `CNC(=O)Oc1c(C)c(OC)cc2c1COC(C)C2` (centres undefined) was 34.7 µM; that for `Cc1cc(C(=O)O)c(O)c2c1[C@H](C)[C@@H](C)OC2` was 12 µM; that for `O=C1CC(O)C1=O` (centres undefined) was 19.1 µM.
The value for `COC(=O)c1cc2cc3cc4cc(CC(=O)O)c(C(=O)/C=C(\O)c5ccccc5O)c(OC)c4c(OC)c3c(O)c2c(=O)o1` was 0.00129 µM.
Turning to `C=C(C)C1CCC(CO[C@H]2OC(CO)C(O)[C@H](O)[C@@H]2O)CC1` (some centres undefined), the IC50 is 46.8 µM.
Take `C=C(C)C1CCC(COC2O[C@H](CO)[C@H](O)[C@@H](O)C2O)CC1` (some centres undefined): inhibition was half-maximal at 28.2 µM (IC50).
As for `COc1cc2c(c(OC)c1C)COC(C)C2` (centres undefined) [6,8-DIMETHOXY-3,7-DIMETHYLISOCHROMAN], the concentration for half-maximal inhibition (IC50) is 100 µM.
The value for `COc1cc2c(c(O)c1C)COC(C)C2` (centres undefined) [6-METHOXY-3,7-DIMETHYLISOCHROMAN-8-OL] was 33.1 µM; that for `O=Cc1ccc(CO)o1` [AES-103] was 182 µM.
As for `C[C@H]1COC2=C1C(=O)C(=O)c1c2ccc2c1CCCC2(C)C` [CRYPTOTANSHINONE], the 50% inhibitory concentration (IC50) was 4.79 µM.
The value for `Cc1cccc2c3c(ccc12)C(=O)C(C(C)CO)=C(O)C3=O` (centres undefined) [DANSHENXINKUN A] was 0.871 µM.
The value for `Cc1cccc2c3c(ccc12)C1=C(C(=O)C3=O)[C@@H](C)CO1` [DIHYDROTANSHINONE I] was 1.2 µM.
The compound `O=C1C(O)=CC(=O)c2c(O)cc(O)cc21` [FLAVIOLIN] had an IC50 of 43.7 µM.
Next, `COc1cc([C@H]2O[C@@H](c3ccc(O)c(OC)c3)[C@H](C)[C@@H]2C)ccc1O` [NECTANDRIN B]: 38 µM; `O=C(/C=C/c1ccc(O)c(O)c1)O[C@H](Cc1ccc(O)c(O)c1)C(=O)O` [ROSMARINIC ACID]: 3.89 µM.
Compound `Cc1coc2c1C(=O)C(=O)c1c-2ccc2c(C)cccc12` [TANSHINONE I] gave a 50% inhibitory concentration (IC50) of 10 µM.
Next, `COc1cc([C@H]2O[C@@H](c3ccc(O)c(OC)c3)[C@@H](C)[C@H]2C)ccc1O` [TETRAHYDROFUROGUAIACIN B]: 21.4 µM.
